# Results published in publication PMC8292404 (British Journal of Cancer, 2021).
# Like-named read-outs stand apart in the source and are kept apart here.
# Columns and labels:
# aHCC with MET alteration = system: aHCC with MET alteration; set-up: method as in PMID 31853265; settings: cited from earlier work
# [1] = system: patients with sorafenib pretreated advanced hepatocellular carcinoma (aHCC); assay: Phase 1b dose escalation ('3 + 3'): DLTs and adverse events; type: in vivo
# From the text: (§1) In both study phases, eligible patients were ≥18 years old with aHCC, Child–Pugh Class A liver function score, Eastern Cooperative Oncology Group performance status 0 or 1, and measurable disease defined by Response Evaluation Criteria In Solid Tumors (RECIST) v1.1. […] Exclusion criteria included any prior systemic anti-cancer treatment for aHCC (besides sorafenib) and presence of symptomatic or untreated brain metastases. Full inclusion and exclusion criteria are shown in Supplementary Table 1.
# (§2) Additional patients were enrolled at the RP2D.
# (§3) The primary endpoint in Phase 1b was incidence of dose-limiting toxicities (DLTs) during Cycle 1. Details of DLTs are defined in Supplementary Table 3. Pharmacokinetics (PK) endpoints, including Cmax, and area under the concentration–time curve over the dosing interval at steady state (AUCτ,ss), were evaluated at Cycle 1, Day 15 as a secondary endpoint in Phase 1b. Selected efficacy measures were evaluated as secondary endpoints in Phase 1b.
# In Phase 2, the primary endpoint was progression-free survival (PFS) status after 12 weeks of treatment, as assessed by the investigator per RECIST v1.1. Secondary endpoints included TTP, time to symptomatic progression, objective response rate (ORR), disease control rate (DCR) (all investigator-assessed and per RECIST v1.1), PFS per modified RECIST v1.1 (investigator-assessed), OS and biological response (defined as a decrease in AFP >20%). As sensitivity analyses, PFS and TTP were also evaluated by independent review. Safety was assessed via reporting of adverse events (AEs), graded according to National Cancer Institute Common Terminology and Criteria for Adverse Events v4.0.
# (§4) Continuous variables, including PK data, were summarised using descriptive statistics; qualitative variables were summarised by means of counts and percentages.
# Patients who were replaced during Cycle 1 were excluded from the analysis set.
# [2] = system: sorafenib pretreated advanced hepatocellular carcinoma (aHCC); assay: Phase 1b: tumour response and survival (RECIST v1.1, investigator); type: in vivo, human; settings: for Best overall response CR / Best overall response Not evaluable / Best overall response PD / Best overall response PR / Best overall response SD: investigator RECIST v1.1
# From the text: This was an open-label, multicentre, integrated, Phase 1b/2 trial conducted across Europe and the US in patients with aHCC who had failed sorafenib treatment.
# as §1
# In Phase 2, patients were required to have MET overexpression, based on assessment of a tumour biopsy sample collected after sorafenib discontinuation and within 28 days before the first day of study treatment. MET overexpression was defined as moderate (2+) or strong (3+) staining for MET in ≥50% of tumour cells by immunohistochemistry (IHC) using the pharmDx anti-total MET (D1C2) rabbit monoclonal antibody (Dako, Agilent Technologies, Inc., Santa Clara, CA) (Supplementary Table 2). MET status was not required for Phase 1b, but was determined retrospectively in a biopsy sample collected within 28 days before the first day of study treatment. MET amplification status was determined for patients in Phase 1b and 2 using formalin-fixed paraffin-embedded tumour material by fluorescent in situ hybridisation. MET amplification was defined as MET:CEP7 ratio ≥2 or mean gene copy number ≥5.
# as §2, §3
# In both phases, tumour assessments were performed per RECIST v1.1 and modified RECIST[29] v1.1 on Day 1 of every second cycle from Cycle 3 to 13, and Day 1 of every fourth cycle thereafter. Exploratory endpoints included biomarkers of MET pathway activity (including MET amplification status).
# as §4
# Tumour response (best overall response, ORR, DCR) and biological response were summarised, along with corresponding two-sided exact Clopper–Pearson 90% confidence intervals (CIs). Kaplan–Meier estimates of median PFS, TTP, time to symptomatic progression and OS are presented, along with 90% CIs (calculated using the two-sided exact Clopper–Pearson method). All statistical analyses were performed using SAS® Software version 9.4 (Statistical Analysis System, SAS-Institute, Cary, North Carolina, US).
# [3] = Phase 1b: pharmacokinetics at Cycle 1, Day 15; settings: human, in vivo
# Description: as §2, §3, §4
# [4] = moderate (Child–Pugh B) hepatic impairment relative to control patients; cited from earlier work
# [5] = Phase 1b, 300 mg cohort (n = 4)
# [6] = Phase 1b, 500 mg cohort (n = 13)
compound,measurement,setting,value
CNC(=O)c1ccc(-c2cnc3ncc(Cc4ccc5ncccc5c4)n3n2)cc1F [capmatinib],objective response,"aHCC with MET alteration; 3/10 patients, MET IHC 3+, or 2+ with MET gene copy number ≥5",30%
same,objective response,"aHCC with MET alteration; 3/30 patients, MET H-score ≥50%, MET:CEP7 ratio ≥2 or MET gene copy number ≥5",10%
CN1CCC(COc2cnc(-c3cccc(Cn4nc(-c5cccc(C#N)c5)ccc4=O)c3)nc2)CC1 [tepotinib],patients with at least one Grade ≥3 treatment-related AE,[1],23.5%
same,patients with at least one treatment-related AE,[1],82.4%
same,"peripheral oedema, AE of any cause",[1],76.5%
same,dose-limiting toxicities (DLTs) during Cycle 1,[1]; 300 and 500 mg QD cohorts,no DLTs
same,AEs of any cause that led to death,[1]; N = 17,23.5%
same,patients with Grade ≥3 events of any cause,[1]; N = 17,58.8%
same,permanently discontinued treatment due to AEs of any cause,[1]; N = 17,17.6%
same,permanently discontinued treatment due to treatment-related AEs,[1]; N = 17 (peripheral oedema),5.9%
same,disease control,[2]; [5],50%
same,objective responses,[2]; [5],50%
same,disease control,[2]; [6],30.8%
same,objective responses,[2]; [6],0%
same,DCR,"[2]; Phase 1b, MET IHC 0",100.0%
same,objective responses,"[2]; Phase 1b, MET IHC 0 (n = 1)",0%
same,DCR,"[2]; Phase 1b, MET IHC 1+",40.0%
same,objective responses,"[2]; Phase 1b, MET IHC 1+ (n = 5)",20%
same,DCR,"[2]; Phase 1b, MET IHC 2+",42.9%
same,objective responses,"[2]; Phase 1b, MET IHC 2+ (n = 7)",14.3%
same,DCR,"[2]; Phase 1b, MET IHC 3+",0%
same,objective responses,"[2]; Phase 1b, MET IHC 3+ (n = 2)",0.0%
same,Median TTP,"[2]; Phase 1b, N = 17",2.1 months
same,median OS,"[2]; Phase 1b, N = 17",7.2 months
same,median PFS,"[2]; Phase 1b, N = 17",1.5 months
same,patients who had died at the time of the analysis,"[2]; Phase 1b, N = 17",82.4%
same,patients with disease progression at the time of the analysis,"[2]; Phase 1b, N = 17",70.6%
same,disease control,"[2]; Phase 1b, overall (N = 17)",35.3%
same,best overall response partial response (PR),"[2]; Phase 1b, two of 17 patients, both 300 mg",11.8%
same,Best overall response CR,[2]; Phase 1b 300 mg/day (n = 4),0 n (%)
same,Best overall response Not evaluable,[2]; Phase 1b 300 mg/day (n = 4),1 (25.0) n (%)
same,Best overall response PD,[2]; Phase 1b 300 mg/day (n = 4),1 (25.0) n (%)
same,Best overall response PR,[2]; Phase 1b 300 mg/day (n = 4),2 (50.0) n (%)
same,Best overall response SD,[2]; Phase 1b 300 mg/day (n = 4),0 n (%)
same,Best overall response CR,[2]; Phase 1b 500 mg/day (n = 13),0 n (%)
same,Best overall response Not evaluable,[2]; Phase 1b 500 mg/day (n = 13),1 (7.7) n (%)
same,Best overall response PD,[2]; Phase 1b 500 mg/day (n = 13),8 (61.5) n (%)
same,Best overall response PR,[2]; Phase 1b 500 mg/day (n = 13),0 n (%)
same,Best overall response SD,[2]; Phase 1b 500 mg/day (n = 13),4 (30.8) n (%)
same,Best overall response CR,[2]; Phase 1b Total (N = 17),0 n (%)
same,Best overall response Not evaluable,[2]; Phase 1b Total (N = 17),2 (11.8) n (%)
same,Best overall response PD,[2]; Phase 1b Total (N = 17),9 (52.9) n (%)
same,Best overall response PR,[2]; Phase 1b Total (N = 17),2 (11.8) n (%)
same,Best overall response SD,[2]; Phase 1b Total (N = 17),4 (23.5) n (%)
same,AUC,"[3]; 300 mg QD, geometric mean (geometric CV 18.2%)",15200 ng·h/mL
same,Cmax,"[3]; 300 mg QD, geometric mean (geometric CV 19.6%)",734 ng/mL
same,Cmax,"[3]; 500 mg QD, geometric mean (geometric CV 44.6%)",677 ng/mL
same,AUC,"[3]; 500 mg QD, geometric mean (geometric CV 50.4%)",12900 ng·h/mL
same,"reduction in exposure, AUC from time 0 to infinity",[4],12%
same,"reduction in exposure, Cmax",[4],29%
